Results on 13 compounds are retold here after patent US11802127B2, “3,4-dihydro-2,7-naphthyridine-1,6(2H,7H)-diones as MEK inhibitors” (Pfizer Inc., priority 2021, dated 2023).

Molecules are shown by their SMILES. Structures can show the parent of a compound that is named as a salt.

By IC50 is commonly meant the concentration needed to halve the response being measured. The low end stands for higher potency, the high end for lower potency.

The test deals with ERK1/2(Thr202/Tyr204) phosphorylation (MEK-dependent) in A375 cells. In words: Cellular Phospho-p44/42 MAPK (Erk1/2) (Thr202/Tyr204) Assay. Format: cell-based. Particulars: Homo sapiens, A-375, 1-hour incubation, pERK1/2 (Thr202/Tyr204) In-Cell Western normalized to GAPDH. As for the experimental part: Inhibition of ERK1/2(Thr202/Tyr204) phosphorylation was determined by the following cellular assay, which comprises incubating cells with a compound for 1 hour and quantifying pERK signal by In-Cell Western on fixed cells and normalizing to GAPDH signal. A375 cells were obtained from the ATCC and grown in DMEM supplemented with 10% fetal bovine serum, penicillin/streptomycin, Glutamax®, non-essential amino acids, and sodium pyruvate. Cells were plated in 96-well plates at 30,000 cells/well and allowed to attach overnight at 37° C./5% CO2. Cells were treated with compounds prepared as a 10-point, 1:3 dilution series (range: 20 μM-0.05 nM; maximum concentration varied from 20 μM-1 μM), with a final DMSO concentration of 0.5%. Control wells contained either 0.5% DMSO alone (no inhibition control) or 1 μM of a potent control compound (complete inhibition control). After a 1-hour incubation, cells were fixed in 3.7% formaldehyde in dPBS (Dulbecco's phosphate-buffered saline) at room temperature for 20 minutes. Cells were then washed with dPBS and permeabilized in 100% MeOH at room temperature for 10 minutes. Following permeabilization, cells were washed in dPBS and incubated in LI-COR Blocking Buffer (LI-COR Biosciences, Cat #927-40000) for 1 hour or longer. Plates were then incubated with an antibody specific for the MEK-dependent ERK1/2 phosphorylation sites, threonine 202 and tyrosine 204 (Cell Signaling Technologies; Cat #9101), downstream of MEK in the MAP kinase signal transduction pathway, as well as GAPDH (Millipore; Cat #MAB374). pErk1/2 (Thr202/Tyr204) antibody was diluted in LI-COR blocking buffer containing 0.05% Tween-20 at 1:250; GAPDH was diluted at 1:2,500. The plates were incubated overnight at 4° C. After washing with PBS/0.05% Tween-20, the cells were incubated with fluorescently-labeled secondary antibodies (Anti-rabbit-Alexa Flour680, Invitrogen Cat #A21109; Anti-mouse-IRDye800CW, LI-COR Biosciences Cat #926-32210, both at 1:1000 dilution) for 1 hour. Cells were then washed, as above, and analyzed for fluorescence at both 680 and 800 nm wavelengths using the Odyssey CLx Infrared Imaging System (LI-COR Biosciences). Phosphorylated Erk1/2 (Thr202/Tyr204) signal was normalized to GAPDH signal for each well.
The compound `Cn1c(Nc2ccc(OC(F)(F)F)cc2F)c2c(cc1=O)CCN(OCCO)C2=O` [Example 24, 8-((2-fluoro-4-(trifluoromethoxy)phenyl)amino)-2-(2-hydroxyethoxy)-7-methyl-3,4-dihydro-2,7-naphthyridine-1,6(2H,7H)-dione] displayed a concentration for half-maximal inhibition (IC50) of 466 nM.

Take `Cn1c(Nc2ccc(C(F)(F)F)cc2F)c2c(cc1=O)CCN(OCCO)C2=O` [Example 13, 8-((2-fluoro-4-(trifluoromethyl)phenyl)amino)-2-(2-hydroxyethoxy)-7-methyl-3,4-dihydro-2,7-naphthyridine-1,6(2H,7H)-dione]: the IC50 was 178 nM.

`Cn1c(Nc2ccc(Br)cc2F)c2c(cc1=O)CCN(OCC1CC1)C2=O` [Example 2, 8-((4-bromo-2-fluorophenyl)amino)-2-(cyclopropylmethoxy)-7-methyl-3,4-dihydro-2,7-naphthyridine-1,6(2H,7H)-dione] had an IC50 of 1030 nM.

Compound `C[C@@H](O)CON1CCc2cc(=O)n(C)c(Nc3ccc(Br)cc3F)c2C1=O` [Example 34, (R)-8-((4-bromo-2-fluorophenyl)amino)-2-(2-hydroxypropoxy)-7-methyl-3,4-dihydro-2,7-naphthyridine-1,6(2H,7H)-dione] had an IC50 of 207 nM.

In turn, `Cc1c2c(c(Nc3ccc(Br)cc3F)n(C)c1=O)C(=O)N(OC[C@@H](C)O)CC2` [Example 35, (R)-8-((4-bromo-2-fluorophenyl)amino)-2-(2-hydroxypropoxy)-5,7-dimethyl-3,4-dihydro-2,7-naphthyridine-1,6(2H,7H)-dione] had a half-maximal inhibitory concentration (IC50) of 229 nM. This IC50 and that of the compound before are within 1.5-fold of each other.

In turn, `Cc1c2c(c(Nc3ccc(OC(F)F)cc3F)n(C)c1=O)C(=O)NCC2` [Example 58, 8-((4-(difluoromethoxy)-2-fluorophenyl)amino)-5,7-dimethyl-3,4-dihydro-2,7-naphthyrdine-1,6(2H,7H)-dione] gave a half-maximal inhibitory concentration (IC50) of 45 nM.

In the case of `Cn1c(Nc2ccc(Br)c(Cl)c2F)c2c(cc1=O)CCN(OCCO)C2=O` [Example 12, 8-((4-bromo-3-chloro-2-fluorophenyl)amino)-2-(2-hydroxyethoxy)-7-methyl-3,4-dihydro-2,7-naphthyridine-1,6(2H,7H)-dione], half-maximal inhibition (IC50) required 1060 nM.

Regarding `CSc1ccc(Nc2c3c(cc(=O)n2C)CCN(OCC(F)F)C3=O)c(F)c1` [Example 63, 2-(2,2-difluoroethoxy)-8-((2-fluoro-4-(methylthio)phenyl)amino)-7-methyl-3,4-dihydro-2,7-naphthyridine-1,6(2H,7H)-dione], the half-inhibitory concentration (IC50) was 114 nM. This IC50 is about 9.3-fold lower than that of the compound before.

For `Cn1c(Nc2ccc(SC(F)(F)F)cc2F)c2c(cc1=O)CCN(OCCO)C2=O` [Example 17, 8-((2-fluoro-4-((trifluoromethyl)thio)phenyl)amino)-2-(2-hydroxyethoxy)-7-methyl-3,4-dihydro-2,7-naphthyridine-1,6(2H,7H)-dione], the IC50 came out at 256 nM.

The compound `Cc1c2c(c(Nc3ccccc3F)n(C)c1=O)C(=O)N(OCCO)CC2Br` (stereo not shown) [Example 43, 4-bromo-8-((2-fluorophenyl)amino)-2-(2-hydroxyethoxy)-5,7-dimethyl-3,4-dihydro-2,7-naphthyridine-1,6(2H,7H)-dione] displayed an IC50 of 155 nM.

`Cn1c(Nc2ccc(Br)c(F)c2F)c2c(cc1=O)CCN(OCCO)C2=O` [Example 11, 8-((4-bromo-2,3-difluorophenyl)amino)-2-(2-hydroxyethoxy)-7-methyl-3,4-dihydro-2,7-naphthyridine-1,6(2H,7H)-dione] gave an IC50 of 199 nM.

Compound `CC(=O)c1ccc(Nc2c3c(cc(=O)n2C)CCN(OCCO)C3=O)c(F)c1` [Example 20, 8-((4-acetyl-2-fluorophenyl)amino)-2-(2-hydroxyethoxy)-7-methyl-3,4-dihydro-2,7-naphthyridine-1,6(2H,7H)-dione] showed an IC50 of 632 nM.

On to `Cn1c(Nc2ccc(Br)cc2F)c2c(cc1=O)CCN(CCO)C2=O` [Example 60, 8-((4-bromo-2-fluorophenyl)amino)-2-(2-hydroxyethyl)-7-methyl-3,4-dihydro-2,7-naphthyridine-1,6(2H,7H)-dione trifluoroacetate], for which the midpoint of inhibition, the IC50, lay at 508 nM.
